According to patent publication US10966994B2, “Thromboxane receptor antagonists” (ATXA THERAPEUTICS LIMITED, priority 2015, dated 2021):

Test system: MCT-induced PAH
Assay: Monocrotoline (MCT)-induced model of pulmonary arterial hypertension (PAH) in rats
Format: in vivo, rat
Conditions: day 28, oral BID, NTP42 and TP20 0.25 mg/kg/dose, Sildenafil 50 mg/kg/dose
Protocol: FIGS. 19-23 show the efficacy of NTP42 in the monocrotoline (MCT)-induced model of pulmonary arterial hypertension (PAH) in rats. In brief, male Wistar/Kyoto rats were given a single dose of MCT (60 mg/kg, subcutaneously) and then treated with twice daily doses (oral dosing) for 28 days with either the drug vehicle, the test article NTP42 (0.25 mg/kg/dose, BID) or with the reference compounds Sildenafil (50 mg/kg/dose, BID) or TP20 (0.25 mg/kg/dose, BID). As a control, a group of rats were left untreated, i.e., no MCT or therapeutic drugs. At Day 28, post-MCT induction, rats were anaesthetised for cardiac surgery & hemodynamic parameters recorded. Thereafter, the trachea, heart & lungs were removed en masse, the wet weights of the heart & lungs recorded and then the lungs were harvested, fixed and processed for histopathology.
Aperio's ImageScope was used to analyze the digitally scanned H&E stained lung sections, where 10 random squares (approx. size or each square=1×10^6 μm^2) per lower, middle and upper section of lung tissue were selected for analysis. Within each square, all blood arterioles (complete arterioles within each square and those touching the right & bottom were assessed but not the left or top of the squares) were measured in ImageScope for luminal and total vessel diameter where the ratio of lumen to total vessel diameter was determined for each arteriole.
FIGS. 24-27 show the effect of the test articles on the mean (±S.E.M.) lumen: total vessel diameter ratio for all arterioles (Total) and the arterioles categorized by size: small, <50 μm total diameter; medium, 50-100 μm and large, >100 μm.
FIG. 27 presents data representing the mean (±SEM) lumen: total vessel diameter ratio for large arterioles (>100 μm).

Q: With `CCCc1nn(C)c2c(=O)[nH]c(-c3cc(S(=O)(=O)N4CCN(C)CC4)ccc3OCC)nc12` [Sildenafil, reference compound] as the compound, how does the “lumen: total vessel diameter ratio versus animals treated with MCT-alone” value read?
A: The value was “significantly increased”.
